{"source": "patent EP3035931B1", "about": "“COMPOSITION FOR REDUCING NERVOUS SYSTEM INJURY AND METHOD OF MAKING AND USE THEREOF” (Morehouse School of Medicine, priority 2013, dated 2015)", "key": {"[1]": {"system": "cultured cortical neurons", "experiment": "LDH release after combined 1 hr OGD/acidosis in cortical neurons", "type": "cell-based, mouse", "settings": "trolox 500 µM, L-NAME 300 µM; n=8-11", "protocol": "(§1) Background absorbance at 620 was subtracted.\nNeurons were washed three times and incubated with glucose-free ECF at pH 7.4 or 6.0 in an anaerobic chamber (Model 1025, Forma Scientific) with an atmosphere of 85% N2, 10% H2, and 5% CO2 at 35° C. Oxygen-glucose deprivation (OGD) was terminated after 1 hr by replacing the glucose-free ECF with Neurobasal medium and incubating the cultures in a normal cell culture incubator.\nAs the magnitude of ASIC currents may be potentiated by cellular and neurochemical components of brain ischemia-cell swelling, arachidonic acid, and lactate and, more importantly, the desensitization of ASIC currents may be reduced dramatically by modeled ischemia (see FIGS. 5A and 5C), activation of ASICs in ischemic conditions is expected to produce greater neuronal injury. To test this hypothesis, neurons were subjected to 1 hr acid treatment under oxygen and glucose deprivation (OGD). MK801, CNQX, and nimodipine were added to all solutions to inhibit voltage-gated Ca^2+ channels and glutamate receptor-mediated cell injury associated with OGD. One hour incubation with pH 7.4 ECF under OGD conditions induced only 27.1% ± 3.5% of maximal LDH release at 24 hr (n=5, FIG. 9D)."}, "ASIC2a": {"target": "T1, ASIC2a (Homo sapiens, UniProt Q16515)", "T1 construct": "expressed in transfected cells; host or cells: CHO", "T1 sequence (Q16515 1-512)": "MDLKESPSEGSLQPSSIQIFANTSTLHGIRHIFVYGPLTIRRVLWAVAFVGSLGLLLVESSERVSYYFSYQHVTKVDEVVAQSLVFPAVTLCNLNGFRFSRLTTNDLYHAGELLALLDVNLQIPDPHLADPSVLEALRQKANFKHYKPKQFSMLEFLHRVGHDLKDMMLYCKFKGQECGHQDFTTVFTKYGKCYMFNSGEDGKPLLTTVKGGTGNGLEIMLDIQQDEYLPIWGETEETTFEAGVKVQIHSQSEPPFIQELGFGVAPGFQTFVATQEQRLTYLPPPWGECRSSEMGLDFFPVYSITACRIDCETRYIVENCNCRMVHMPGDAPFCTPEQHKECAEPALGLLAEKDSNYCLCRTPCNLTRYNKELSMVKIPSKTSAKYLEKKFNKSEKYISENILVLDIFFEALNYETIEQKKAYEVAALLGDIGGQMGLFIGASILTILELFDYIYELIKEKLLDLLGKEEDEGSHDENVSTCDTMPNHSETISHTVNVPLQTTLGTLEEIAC", "experiment": "Blockade of ASIC 2a current expressed in CHO cells", "type": "cell-based"}, "ASIC1a channel": {"target": "T2, ASIC1a channel (Mus musculus, UniProt Q6NXK8)", "T2 construct": "endogenous in cells", "T2 sequence (Q6NXK8 1-526)": "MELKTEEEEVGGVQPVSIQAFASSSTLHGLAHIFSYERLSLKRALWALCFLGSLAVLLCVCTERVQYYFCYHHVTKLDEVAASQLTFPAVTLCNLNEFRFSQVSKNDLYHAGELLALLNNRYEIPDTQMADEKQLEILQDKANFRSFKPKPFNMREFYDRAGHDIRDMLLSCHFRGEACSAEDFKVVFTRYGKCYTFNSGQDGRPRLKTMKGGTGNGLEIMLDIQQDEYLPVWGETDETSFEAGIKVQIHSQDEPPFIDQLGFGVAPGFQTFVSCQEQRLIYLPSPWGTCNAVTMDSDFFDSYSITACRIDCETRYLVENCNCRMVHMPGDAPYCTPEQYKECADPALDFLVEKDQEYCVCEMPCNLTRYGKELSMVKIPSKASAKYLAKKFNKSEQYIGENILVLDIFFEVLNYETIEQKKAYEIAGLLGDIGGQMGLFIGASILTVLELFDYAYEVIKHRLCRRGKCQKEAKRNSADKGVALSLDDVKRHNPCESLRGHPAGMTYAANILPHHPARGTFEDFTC", "experiment": "Table 1, inhibition in neurons", "type": "cell-based", "protocol": "ASIC currents were recorded with whole-cell patch-clamp and fast-perfusion techniques. […] For low pH solutions, various amounts of HCl were added. For solutions with pH<6.0, MES instead of HEPES was used for more reliable pH buffering. Patch electrodes contained (in mM) 140 CsF, 2.0 MgCl2, 1.0 CaC2, 10 HEPES, 11 EGTA, 4 MgATP (pH 7.3), 300 mOsm. […] A multibarrel perfusion system (SF-77B, Warner Instrument Co.) was employed for rapid exchange of solutions."}, "Knockout 1a": {"system": "Knockout 1a", "experiment": "Table 1, inhibition in Knockout 1a", "type": "cell-based"}, "Knockout 2a": {"system": "Knockout 2a", "experiment": "Table 1, inhibition in Knockout 2a", "type": "cell-based"}, "ASIC1a [2]": {"target": "T3, ASIC1a (Homo sapiens, UniProt P78348)", "T3 sequence (P78348 1-528)": "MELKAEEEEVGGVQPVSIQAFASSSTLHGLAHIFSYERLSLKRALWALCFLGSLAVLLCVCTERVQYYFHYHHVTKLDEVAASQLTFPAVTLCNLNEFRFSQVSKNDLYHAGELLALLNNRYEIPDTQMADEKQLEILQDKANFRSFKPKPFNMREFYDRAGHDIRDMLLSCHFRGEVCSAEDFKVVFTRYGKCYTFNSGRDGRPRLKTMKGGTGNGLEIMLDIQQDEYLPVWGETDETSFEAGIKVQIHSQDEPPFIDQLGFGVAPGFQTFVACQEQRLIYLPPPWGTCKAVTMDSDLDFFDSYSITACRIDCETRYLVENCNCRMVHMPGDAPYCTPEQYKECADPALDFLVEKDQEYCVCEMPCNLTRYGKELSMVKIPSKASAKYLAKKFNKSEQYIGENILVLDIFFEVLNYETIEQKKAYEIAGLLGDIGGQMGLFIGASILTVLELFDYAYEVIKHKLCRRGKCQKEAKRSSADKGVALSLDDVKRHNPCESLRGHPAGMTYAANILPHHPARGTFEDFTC", "experiment": "Blockade of ASIC 1a current expressed in CHO cells", "type": "cell-based", "parameters": "expressed in transfected cells; host or cells: CHO", "settings": "for block of ASIC1a current: CHO cells, FIG. 16"}, "cortical neurons": {"system": "cortical neurons", "experiment": "Fura-2 Ca^2+ imaging of acid-induced increase of [Ca^2+]i in cortical neurons", "type": "cell-based, mouse", "settings": "preincubation with 1 µM; n=6"}, "ASIC1a [3]": {"target": "T3, ASIC1a", "experiment": "Inhibition of the ASIC1a channel (IC50 from Table 1, cell system not given)", "type": "cell-based", "settings": "quoted in the text from Table 1"}, "[4]": {"settings": "0.9% saline; cited from earlier work"}, "[5]": {"experiment": "Mouse 60 min MCAO, memantine i.p. with or without PcTX venom i.c.v., infarct volume", "type": "in vivo, mice"}, "ASIC1^-/- neurons": {"system": "ASIC1^-/- neurons", "type": "cell-based, mouse", "settings": "1 hr treatment with 1 mM NMDA+10 µM glycine in Mg^2+-free pH 7.4 ECF; n=4", "protocol": "Following anesthesia with halothane, cerebral cortices were dissected from E16 Swiss mice or P1 ASIC1+/+ and ASIC1-/- mice and incubated with 0.05% trypsin-EDTA for 10 min at 37° C. Tissues were then triturated with fire-polished glass pipettes and plated on poly-L-ornithine-coated 24-well plates or 25x25 mm glass coverslips at a density of 2.5x10^5 cells per well or 10^6 cells per coverslip. Neurons were cultured with MEM supplemented with 10% horse serum (for E16 cultures) or Neurobasal medium supplemented with B27 (for PI cultures) and used for electrophysiology and toxicity studies after 12 days. Glial growth was suppressed by addition of 5-fluoro-2-deoxyuridine and uridine, yielding cultured cells with 90% neurons as determined by NeuN and GFAP staining (data not shown).\nas §1\n. […] . In contrast to acid incubation, 1 hr treatment of ASIC1^-/- neurons with 1 mM NMDA+10 µM glycine (in Mg^2+-free [pH 7.4] ECF) induced 84.8% ± 1.4% of maximal LDH release at 24 hr (n=4, FIG. 9C), indicating normal response to other cell injury processes."}, "[6]": {"experiment": "Mouse 60 min MCAO, intracerebroventricular injection one hour after MCAO, infarct volume", "settings": "mice, evaluated one day after ischemia induction, FIG. 18"}, "[7]": {"settings": "Neuron (-60 mV), read-out: Inhibition of the ASIC1a channel, Neuron (-60 mV)"}, "[8]": {"settings": "read-out: Inhibition of the ASIC1a channel, Neuron (-60 mV)"}}, "note": "Where “and” joins values, the source holds several entries; their conditions need not be identical. Equal entries are not always repeated. Structures can show the parent of a compound that is named as a salt. Where two headings read alike, the source gives them in different places."}
{"compound": "Cc1c(C)c2c(c(C)c1O)CCC(C)(C(=O)O)O2", "note": "(stereo not drawn) [trolox]", "values": [{"measurement": "LDH release induced by combined 1 hr OGD/acidosis", "setting": "[1]", "result": "not inhibited"}]}
{"compound": "CCN(c1nc(N)c(C(=O)NC(=N)N)nc1Cl)C(C)C", "note": "[EIPA, 5-(N-ethyl-N-isopropyl) amiloride]", "values": [{"measurement": "IC50", "setting": "ASIC2a; CHO 2a, read-out: Inhibition, CHO 2a", "result": 31, "unit": "µM"}, {"measurement": "block of ASIC2a current", "setting": "ASIC2a; CHO cells, FIG. 17", "result": "dose-dependent"}, {"measurement": "IC50", "setting": "ASIC1a channel; Neuron (-20 mV), read-out: Inhibition of the ASIC1a channel, Neuron (-20 mV)", "result": "32.2 ± 6.3", "unit": "µM"}, {"measurement": "IC50", "setting": "ASIC1a channel; [7]", "result": "43.3 ± 1.43", "unit": "µM"}, {"measurement": "IC50", "setting": "Knockout 1a", "result": "35.9 ± 2.1", "unit": "µM"}, {"measurement": "IC50", "setting": "Knockout 2a", "result": "20.1 ± 2.2", "unit": "µM"}, {"measurement": "IC50", "setting": "ASIC1a [2]; CHO 1a, read-out: Inhibition of the ASIC1a channel, CHO 1a", "result": "111 ± 30", "unit": "µM"}, {"measurement": "block of ASIC1a current", "setting": "ASIC1a [2]", "result": "dose-dependent"}]}
{"compound": "C/C=C(/C)C(=O)O[C@H]1C(C)=C2[C@H]([C@@H]1OC(=O)CCCCCCC)[C@@](C)(OC(C)=O)C[C@H](OC(=O)CCC)[C@@]1(O)[C@H]2OC(=O)[C@@]1(C)O", "note": "[thapsigargin]", "values": [{"measurement": "sustained component of Ca^2+ increase", "setting": "cortical neurons", "result": "partially inhibited"}]}
{"compound": "NC(=Nc1ccccc1)NC(=O)c1nc(Cl)c(N)nc1N", "note": "[phenamil]", "values": [{"measurement": "block of ASIC1a current", "setting": "ASIC1a [2]", "result": "dose-dependent"}]}
{"compound": "NC(=NCc1ccccc1)NC(=O)c1nc(Cl)c(N)nc1N", "note": "[benzamil]", "values": [{"measurement": "IC50", "setting": "ASIC1a [3]", "result": "4.9 µM and 4 to 8 µM"}, {"measurement": "reported solubility", "setting": "[4]", "result": "0.4 mg/ml and 1.7 mM"}]}
{"compound": "CN(C)c1nc(N)c(C(=O)NC(=N)N)nc1Cl", "note": "[5-(N, N-Dimenthyl)amiloride hydrochloride]", "values": [{"measurement": "IC50", "setting": "ASIC1a channel; [8]", "result": "14.8 ± 7.1", "unit": "µM"}]}
{"compound": "CC12CC3CC(C)(C1)CC(N)(C3)C2", "note": "[memantine]", "values": [{"measurement": "infarct volume", "setting": "[5]; ASIC1^-/- mice, memantine i.p., n=5", "result": "27.7 ± 1.6", "unit": "mm^3"}, {"measurement": "infarct volume", "setting": "[5]; ASIC^+/+ mice, 10 mg/kg memantine i.p., saline 101.4 ± 9.4, n=5", "result": "61.6 ± 12.7", "unit": "mm^3"}]}
{"compound": "CN[C@H](CC(=O)O)C(=O)O", "note": "[NMDA]", "values": [{"measurement": "maximal LDH release at 24 hr", "setting": "ASIC1^-/- neurons", "result": "84.8% ± 1.4%"}]}
{"compound": "COC(=O)[C@@H](N)CCCNC(=N)N[N+](=O)[O-]", "note": "[L-NAME]", "values": [{"measurement": "LDH release induced by combined 1 hr OGD/acidosis", "setting": "[1]", "result": "not inhibited"}]}
{"compound": "CC(C)COCC(CN(Cc1ccccc1)c1ccccc1)N1CCCC1", "note": "(stereo not drawn) [Bepridil, bepridil]", "values": [{"measurement": "IC50", "setting": "ASIC1a channel; [7]", "result": "82.9 ± 5.2", "unit": "µM"}, {"measurement": "infarct volume", "setting": "[6]", "result": "effectively reduce infarct volume"}]}
{"compound": "CC(C)CN(C)c1nc(N)c(C(=O)N=C(N)N)nc1Cl", "note": "[5-(N-Methyl-N-isobutyl)-amiloride]", "values": [{"measurement": "IC50", "setting": "ASIC1a channel; [8]", "result": 24.3, "unit": "µM"}]}
